#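 Where inhibition never reached the appropriate level, the endpoint shown equals the highest concentration tested. Otherwise, values were interpolated linearly from a five-concentration, 48-hour dose response in 96-well plates. Definition used: TGI = concentration required for complete inhibition of growth.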
# What was measured:
# Assay in all cases: DTP human tumour cell line panel, 48 h
# [1] = system: 786-0 renal
# [2] = system: A498 renal
# [3] = system: A549 NSCLC
# [4] = system: ACHN renal
# [5] = system: CAKI-1 renal
# [6] = system: CCRF-CEM leukemia
# [7] = system: COLO 205 colon
# [8] = system: DLD-1 colon
# [9] = system: DMS 114 small cell lung
# [10] = system: DMS 273 small cell lung
# [11] = system: EKVX NSCLC
# [12] = system: HCC-2998 colon
# [13] = system: HCT-116 colon
# [14] = system: HCT-15 colon
# [15] = system: HL-60(TB) leukemia
# [16] = system: HOP-62 NSCLC
# [17] = system: HT29 colon
# [18] = system: IGROV1 ovarian
# [19] = system: K-562 leukemia
# [20] = system: KM12 colon
# [21] = system: KM20L2 colon
# [22] = system: LXFL 529 NSCLC
# [23] = system: M19-MEL melanoma
# [24] = system: MOLT-4 leukemia
# [25] = system: NCI-H23 lung
# [26] = system: NCI-H460 lung
# [27] = system: OVCAR-3 ovarian
# [28] = system: OVCAR-4 ovarian
# [29] = system: OVCAR-8 ovarian
# [30] = system: RPMI-8226 leukemia
# [31] = system: RXF 393 renal
# [32] = system: RXF-631 renal
# [33] = system: SF-295 CNS
# [34] = system: SF-539 CNS
# [35] = system: SK-MEL-2 melanoma
# [36] = system: SK-MEL-28 melanoma
# [37] = system: SK-OV-3 ovarian
# [38] = system: SN12C renal
# [39] = system: SNB-19 CNS
# [40] = system: SNB-75 CNS
# [41] = system: SNB-78 CNS
# [42] = system: SR leukemia
# [43] = system: SW-620 colon
# [44] = system: U251 CNS
# [45] = system: UACC-257 melanoma
# [46] = system: UACC-62 melanoma
# [47] = system: UO-31 renal
# [48] = system: XF 498 CNS
# [49] = system: LOX IMVI melanoma
# [50] = system: M14 melanoma
# [51] = system: MALME-3M melanoma
# [52] = system: NCI-H226 lung
# [53] = system: NCI-H522 lung
# [54] = system: OVCAR-5 ovarian
# [55] = system: SF-268 CNS
# [56] = system: SK-MEL-5 melanoma
# [57] = system: TK-10 renal
# [58] = system: HOP-18 NSCLC
# [59] = system: HOP-92 NSCLC
structure (smiles),measurement,setting,value
COc1ccc(-c2cc(=O)c3cc(C)c(C)c(C(=O)O)c3o2)cc1,TGI,[1],> 100 µM
same,TGI,[2],> 100 µM
same,TGI,[3],> 100 µM
same,TGI,[4],94.4 µM
same,TGI,[5],> 100 µM
same,TGI,[6],> 100 µM
same,TGI,[7],> 100 µM
same,TGI,[8],> 100 µM
same,TGI,[9],45.6 µM
same,TGI,[10],> 100 µM
same,TGI,[11],> 100 µM
same,TGI,[12],> 100 µM
same,TGI,[13],> 100 µM
same,TGI,[14],> 100 µM
same,TGI,[15],> 100 µM
same,TGI,[16],> 100 µM
same,TGI,[17],> 100 µM
same,TGI,[18],> 100 µM
same,TGI,[19],> 100 µM
same,TGI,[20],> 100 µM
same,TGI,[21],> 100 µM
same,TGI,[22],> 100 µM
same,TGI,[23],> 100 µM
same,TGI,[24],> 100 µM
same,TGI,[25],> 100 µM
same,TGI,[26],> 100 µM
same,TGI,[27],> 100 µM
same,TGI,[28],> 100 µM
same,TGI,[29],> 100 µM
same,TGI,[30],> 100 µM
same,TGI,[31],> 100 µM
same,TGI,[32],> 100 µM
same,TGI,[33],> 100 µM
same,TGI,[34],> 100 µM
same,TGI,[35],> 100 µM
same,TGI,[36],> 100 µM
same,TGI,[37],> 100 µM
same,TGI,[38],> 100 µM
same,TGI,[39],> 100 µM
same,TGI,[40],> 100 µM
same,TGI,[41],> 100 µM
same,TGI,[42],> 100 µM
same,TGI,[43],> 100 µM
same,TGI,[44],> 100 µM
same,TGI,[45],> 100 µM
same,TGI,[46],30.7 µM
same,TGI,[47],> 100 µM
same,TGI,[48],> 100 µM
CN/N=C(\C)C(CN1CCCCC1)C(C1=C(O)c2ccccc2OC1)c1ccccc1 (stereo unspecified),TGI,[1],> 100 µM
same,TGI,[3],> 100 µM
same,TGI,[4],> 100 µM
same,TGI,[5],> 100 µM
same,TGI,[6],> 100 µM
same,TGI,[7],> 100 µM
same,TGI,[9],> 100 µM
same,TGI,[10],> 100 µM
same,TGI,[11],> 100 µM
same,TGI,[12],> 100 µM
same,TGI,[13],> 100 µM
same,TGI,[14],> 100 µM
same,TGI,[15],> 100 µM
same,TGI,[16],> 100 µM
same,TGI,[17],> 100 µM
same,TGI,[18],> 100 µM
same,TGI,[19],> 100 µM
same,TGI,[20],> 100 µM
same,TGI,[21],> 100 µM
same,TGI,[49],> 100 µM
same,TGI,[22],> 100 µM
same,TGI,[50],> 100 µM
same,TGI,[23],> 100 µM
same,TGI,[51],> 100 µM
same,TGI,[24],> 100 µM
same,TGI,[52],> 100 µM
same,TGI,[25],> 100 µM
same,TGI,[26],> 100 µM
same,TGI,[53],> 100 µM
same,TGI,[27],> 100 µM
same,TGI,[28],> 100 µM
same,TGI,[54],> 100 µM
same,TGI,[29],> 100 µM
same,TGI,[30],> 100 µM
same,TGI,[31],> 100 µM
same,TGI,[32],> 100 µM
same,TGI,[55],> 100 µM
same,TGI,[33],> 100 µM
same,TGI,[34],> 100 µM
same,TGI,[35],> 100 µM
same,TGI,[36],> 100 µM
same,TGI,[56],> 100 µM
same,TGI,[37],> 100 µM
same,TGI,[38],> 100 µM
same,TGI,[39],> 100 µM
same,TGI,[40],> 100 µM
same,TGI,[41],> 100 µM
same,TGI,[42],> 100 µM
same,TGI,[43],> 100 µM
same,TGI,[57],> 100 µM
same,TGI,[44],> 100 µM
same,TGI,[45],> 100 µM
same,TGI,[46],> 100 µM
same,TGI,[47],> 100 µM
same,TGI,[48],> 100 µM
C[C@]12CCc3nonc3C1CC[C@@H]1C2CC[C@@]2(C)C1CC[C@@H]2O (stereo partly specified),TGI,[1],> 100 µM
same,TGI,[2],> 100 µM
same,TGI,[3],> 100 µM
same,TGI,[4],> 100 µM
same,TGI,[5],> 100 µM
same,TGI,[6],> 100 µM
same,TGI,[7],> 100 µM
same,TGI,[8],> 100 µM
same,TGI,[9],> 100 µM
same,TGI,[10],> 100 µM
same,TGI,[11],> 100 µM
same,TGI,[12],> 100 µM
same,TGI,[14],> 100 µM
same,TGI,[15],> 100 µM
same,TGI,[58],> 100 µM
same,TGI,[16],> 100 µM
same,TGI,[59],> 100 µM
same,TGI,[17],> 100 µM
same,TGI,[18],> 100 µM
same,TGI,[19],> 100 µM
same,TGI,[20],> 100 µM
same,TGI,[21],> 100 µM
same,TGI,[49],> 100 µM
same,TGI,[22],> 100 µM
same,TGI,[50],> 100 µM
same,TGI,[23],> 100 µM
same,TGI,[51],> 100 µM
same,TGI,[24],> 100 µM
same,TGI,[52],> 100 µM
same,TGI,[25],> 100 µM
same,TGI,[26],> 100 µM
same,TGI,[53],> 100 µM
same,TGI,[27],> 100 µM
same,TGI,[28],> 100 µM
same,TGI,[54],> 100 µM
same,TGI,[29],> 100 µM
same,TGI,[30],> 100 µM
same,TGI,[31],> 100 µM
same,TGI,[32],> 100 µM
same,TGI,[55],> 100 µM
same,TGI,[33],> 100 µM
same,TGI,[34],> 100 µM
same,TGI,[35],> 100 µM
same,TGI,[36],> 100 µM
same,TGI,[56],> 100 µM
same,TGI,[37],> 100 µM
same,TGI,[38],> 100 µM
same,TGI,[39],> 100 µM
same,TGI,[40],> 100 µM
same,TGI,[41],> 100 µM
same,TGI,[43],> 100 µM
same,TGI,[57],> 100 µM
same,TGI,[44],> 100 µM
same,TGI,[45],> 100 µM
same,TGI,[46],> 100 µM
same,TGI,[47],> 100 µM
same,TGI,[48],> 100 µM
COc1ccc([Se][Se]c2ccc(OC)cc2OC)c(OC)c1,TGI,[1],7.78 µM
same,TGI,[2],53.5 µM
same,TGI,[3],> 100 µM
same,TGI,[4],8.89 µM
same,TGI,[5],18.6 µM
same,TGI,[6],5.29 µM
same,TGI,[7],> 100 µM
same,TGI,[8],8.72 µM
same,TGI,[9],4.82 µM
same,TGI,[10],19.7 µM
same,TGI,[12],> 100 µM
same,TGI,[13],10.5 µM
same,TGI,[14],4.33 µM
same,TGI,[15],5.89 µM
same,TGI,[58],4.72 µM
same,TGI,[59],4.46 µM
same,TGI,[17],> 100 µM
same,TGI,[18],15.3 µM
same,TGI,[19],7.94 µM
same,TGI,[20],14.6 µM
same,TGI,[22],4.64 µM
same,TGI,[50],9.3 µM
same,TGI,[23],4.68 µM
same,TGI,[51],33.2 µM
same,TGI,[24],19.2 µM
same,TGI,[52],7.71 µM
same,TGI,[25],15.3 µM
same,TGI,[26],> 100 µM
same,TGI,[53],4 µM
same,TGI,[27],20 µM
same,TGI,[28],4.6 µM
same,TGI,[29],> 100 µM
same,TGI,[30],6.96 µM
same,TGI,[31],6.27 µM
same,TGI,[32],59.2 µM
same,TGI,[55],4.97 µM
same,TGI,[33],4.03 µM
same,TGI,[34],3.16 µM
same,TGI,[35],20.8 µM
same,TGI,[36],4.56 µM
same,TGI,[56],29.3 µM
same,TGI,[37],76.5 µM
same,TGI,[39],21 µM
same,TGI,[40],3.11 µM
same,TGI,[41],7.04 µM
same,TGI,[43],7.04 µM
same,TGI,[57],16.3 µM
same,TGI,[45],5.85 µM
same,TGI,[46],4.14 µM
same,TGI,[47],5.31 µM
same,TGI,[48],3.84 µM
